Values of other authors, collected in patent US7943615B2, “Fused aminopiperidines as dipeptidyl peptidase-4 inhibitors for the treatment or prevention of diabetes” (Merck Sharp & Dohme Corp., priority 2005, dated 2011).

What was measured:
cardiac allograft = conditions: rats; doubled from day 7
hematopoiesis = conditions: mouse, cyclophosphamide-induced neutropenia
DPP-4 = target: T1, DPP-4 (Homo sapiens, UniProt P27487)
T1 construct: GRF is rapidly degraded in plasma to GRF[344]
T1 sequence (P27487 whole entry, species assumed): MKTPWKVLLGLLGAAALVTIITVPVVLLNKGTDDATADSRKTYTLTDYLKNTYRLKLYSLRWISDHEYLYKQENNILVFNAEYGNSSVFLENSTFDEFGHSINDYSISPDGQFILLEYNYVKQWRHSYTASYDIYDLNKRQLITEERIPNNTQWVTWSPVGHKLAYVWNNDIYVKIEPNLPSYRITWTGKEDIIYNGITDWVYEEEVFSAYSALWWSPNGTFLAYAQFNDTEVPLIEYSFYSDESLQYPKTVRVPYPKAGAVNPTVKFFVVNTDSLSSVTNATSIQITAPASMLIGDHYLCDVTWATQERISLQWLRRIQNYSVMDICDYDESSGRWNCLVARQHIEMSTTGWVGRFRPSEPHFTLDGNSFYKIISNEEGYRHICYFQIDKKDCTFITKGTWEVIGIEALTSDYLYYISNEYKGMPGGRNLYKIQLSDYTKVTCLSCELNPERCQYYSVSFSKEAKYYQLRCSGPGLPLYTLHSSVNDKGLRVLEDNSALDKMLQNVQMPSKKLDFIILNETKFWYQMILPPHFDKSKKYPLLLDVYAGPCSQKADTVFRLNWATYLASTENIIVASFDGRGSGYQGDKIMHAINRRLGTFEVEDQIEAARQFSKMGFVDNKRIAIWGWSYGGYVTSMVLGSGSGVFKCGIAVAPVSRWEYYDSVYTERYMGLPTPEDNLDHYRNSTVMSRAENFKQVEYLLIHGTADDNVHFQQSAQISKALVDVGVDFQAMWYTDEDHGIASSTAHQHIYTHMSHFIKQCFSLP

## CC(C)N1CCC(c2ccccc2)(c2ccccc2)CC1 [Prodipine, Pro-Pro-diphenyl-phosphonate]
Cardiac allograft
  cardiac allograft survival: 14 day

## CC(C)[C@H](N)C(=O)N1CCC[C@H]1B(O)O [Val-Boro-Pro]
hematopoiesis
  effect on hematopoiesis: stimulated hematopoiesis

## diprotin A
DPP-4
  effect on degradation of GRF in plasma: prevented
